The values below come from patent US11691989B2, “Macrocyclic indoles as Mcl-1 inhibitors” (ASCENTAGE PHARMA (SUZHOU) CO., LTD., priority 2018, dated 2023).

One data set relates to MV-4-11 cells. Nature of the data set: MV-4-11 cell viability assay, CCK-8. It is filed as cell-based. How it is done:
MV-4-11 cells were obtained from American Type Culture Collection (ATCC). […]
The effect of representative Compounds of the Disclosure on cell viability was determined using Cell Counting Kit-8 (CCK-8) assay according to the manufacturer's instructions. 95 μL of MV-4-11 cell suspension (20000 cells/well) in culture medium were seeded into 96-well plates and cultured 4 hrs. Each tested compound was serially diluted in DMSO, then 5 μL of the compound or DMSO was diluted in 95 μL medium once more. At last, 5 μL of the compound dilution was added to the corresponding well of the cell plate. After the addition of the tested compound, the cells were incubated at 37° C. in an atmosphere of 5% CO2 for 24 hrs. At the end, 10 μL of CCK-8 solution was added to each well of the plate and incubated for 1-4 hrs. The plates were read at 450 nm on the microplate reader (BioTek Synergy 1MF). The readings were normalized to the vehicle cells, and the IC50 was calculated by nonlinear regression analysis using GraphPad Prism 6 software.

A short description of data set [1]: Microsome clearance assay, rat. It is filed as in vitro ADME. Conditions: 0.5 mg/ml protein, 1 mM NADPH, 60 minutes; for microsomal CLint at 5 μM: male, Wister, rat, pooled liver microsomes, pH 7.4, rat liver microsomes, read-out: Rat Liver Microsome Clint (μL/min/mg protein); for Rat Liver Microsome Clint (μL/min/mg protein): rat liver microsomes, 5 μM. Summed up: (§1)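 Pooled liver microsomes (human, male Wistar rat, male CD-1 mouse) at 0.5 mg/ml protein in 0.1M sodium phosphate pH 7.4 with 5 μM test compound and 1 mM NADPH, incubated 60 minutes. Reactions quenched in ice-cold methanol; supernatant analysed by LC/MS/MS (electrospray).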
(In general: Microsomes from liver hold many membrane-bound enzymes, among them those of drug oxidation.)

Data set [2] can be described thus: Microsome clearance assay, mouse. It is filed as in vitro ADME. Conditions: 0.5 mg/ml protein, 1 mM NADPH, 60 minutes; for microsomal CLint at 5 μM: male, CD-1, mouse, pooled liver microsomes, pH 7.4, mouse liver microsomes, read-out: Mouse Liver Microsome Clint (μL/min/mg protein); for Mouse Liver Microsome Clint (μL/min/mg protein): mouse liver microsomes, 5 μM. Summed up:
as §1

The test system of another data set is NCI-H929 cells. In words: Cell viability assay (NCI-H929 cells), CCK-8. Format: cell-based. Conditions: 5% FBS. Summed up: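 NCI-H929 cells (20000/well) exposed to serially diluted compounds for 24 h at 37 °C, 5% CO2. Viability by CCK-8, absorbance at 450 nm after 1-4 h, normalized to vehicle-treated cells. IC50 by nonlinear regression.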
For the next data set, the system named is OPM-2 cells. Nature of the data set: Cell viability assay (OPM-2 cells), CCK-8. It is filed as cell-based. Conditions: 5% FBS. The essentials: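 OPM-2 myeloma cells (20000/well) incubated with serially diluted compound for 24 h at 37 °C, 5% CO2. Viability read by CCK-8 (4 h) absorbance at 450 nm, normalised to vehicle; IC50 from nonlinear regression.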
The nature of data set [3]: Kinetic solubility assay in PBS buffer. Format: physicochemical. Conditions: for solubility: PBS buffer, pH 6.5, aqueous buffer, thermodynamic from solid, read-out: Solubility (pH 6.5, μg/mL). On the procedure:
Representative Compounds of the Disclosure were tested in a kinetic solubility assay in PBS buffer. PBS buffer was prepared by dissolving 4.86 g of potassium dihydrogen phosphate and 5.09 g of disodium hydrogen phosphate dodecahydrate in 1 L of ultrapure water (final pH 6.5). 0.5 mg of test sample was dissolved in 1 mL of methanol and the stock solution was transferred into 2 mL EP tube, and evaporated at 50° C. for 3 h. To the tube was added 1 mL of PBS buffer and the mixture was stirred and shaken for 1-2 h. The solution was allowed to stand overnight and then filtered before HPLC analysis. Another 1.5 mg of the sample was dissolved in 3 mL of methanol to prepare a calibration curve with a series of concentration range of 5-500 μM. The solubility of each sample was determined by the measured peak area in HPLC.

Data set [4] can be described thus: Microsome clearance assay, human. It is filed as in vitro ADME. Particulars: 0.5 mg/ml protein, 1 mM NADPH, 60 minutes; for microsomal CLint at 5 μM: human, pooled liver microsomes, pH 7.4, human liver microsomes, read-out: Human Liver Microsome Clint (μL/min/mg protein); for Human Liver Microsome Clint (μL/min/mg protein): human liver microsomes, 5 μM. The essentials: as §1

In data set [5] the target is Mcl-1 protein (residues 171-323) (Homo sapiens (Human), UniProt Q07820). Nature of the data set: Inhibition of Mcl-1 by fluorescence polarization (FP) competitive binding assay with FAM-Bid tracer. Conditions: 2 nM FAM-Bid, 20 nM Mcl-1, 30 min, read-out: Mc1-1 (FP). The essentials: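 Competitive FP binding of compounds against FAM-Bid tracer (final 2 nM) on Mcl-1 (final 20 nM) in PBS with 0.01% BGG and 0.01% Triton X-100, 5% final DMSO.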
On the technique in general: Fluorescence polarisation rises when a labelled molecule tumbles more slowly, as on binding a larger partner.

[6] abbreviates: Homo sapiens, MV4-11, 24 h, read-out: MV-4-11 IC50 (5% FBS, nM), MV-4-11 cells, 5% FBS, 24 hrs, CCK-8.
[7] abbreviates: read-out: MV-4-11 IC50 (5% FBS), MV-4-11 cells, 5% FBS, 24 hrs, CCK-8.

Values after ≈ are worked out from the molar mass of the structure shown. Like-named read-outs stand apart in the source and are kept apart here.

Mcl-1 protein (residues 171-323), sequence (Q07820 171-323): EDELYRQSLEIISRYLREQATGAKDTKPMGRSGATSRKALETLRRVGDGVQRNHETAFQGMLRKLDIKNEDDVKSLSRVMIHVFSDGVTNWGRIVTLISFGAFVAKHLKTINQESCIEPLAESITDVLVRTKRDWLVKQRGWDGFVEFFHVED

As to `Cc1c(C(=O)O)n2c3ccc(Cl)c(c13)-c1c(nn(C)c1C(F)F)CSCc1cc(n(C)n1)CSc1cc(c3ccc(F)cc3c1)OCCC2` [Cpd. No. 18, (Z)-1^5-chloro-2^5-(difluoromethyl)-9^6-fluoro-1^3,2^1,6^1-trimethyl-1^1H,2^1H,6^1H-10-oxa-4,8-dithia-1(4,1)-indola-2(4,3),6(3,5)-dipyrazola-9(3,1)-naphthalenacyclotridecaphane-1^2-carboxylic acid], the IC50 with MV-4-11 cells (setting [6]) came to 93 nM; in the data set with NCI-H929 cells (Homo sapiens, NCI-H929, 24 h), 63 nM; with OPM-2 cells (Homo sapiens, OPM-2, 24 h), 189 nM; in data set [5], 15 nM. The figures for the microsomal CLint at 5 μM in data set [1], in data set [2] and in data set [4] were 22.6 µL/min/mg, 42 µL/min/mg and 22.2 µL/min/mg, respectively. Also, in data set [3], the solubility is less than 1 µg/mL.
`Cc1c(C(=O)O)n2c3ccc(Cl)c(c13)-c1c(nn(C)c1C)CSCc1cc(n(C)n1)CSc1cc(c3ccccc3c1)OCCC2` [Cpd. No. 5, (Z)-1^5-chloro-1^3,2^1,2^5,6^1-tetramethyl-1^1H,2^1H,6^1H-10-oxa-4,8-dithia-1(4,1)-indola-2(4,3), 6(3,5)-dipyrazola-9(3,1)-naphthalenacyclotridecaphane-1^2-carboxylic acid]: the IC50 with MV-4-11 cells (setting [6]) stood at 43 nM; in the data set on NCI-H929 cells (24 hrs), 33 nM; with OPM-2 cells (24 hours), 192 nM; in data set [5], 17 nM. Also, in data set [1], the “Rat Liver Microsome Clint (μL/min/mg protein)” value (from here on “Rat Liver Microsome Clint”) was found to be 58.8 μL/min/mg protein. In addition, in data set [2], the “Mouse Liver Microsome Clint (μL/min/mg protein)” value (from here on “Mouse Liver Microsome Clint”) came to 48.4 μL/min/mg protein. The “Solubility (pH 6.5, μg/mL)” value in data set [3] (PBS buffer pH 6.5) is 2 μg/mL. Also, the “Human Liver Microsome Clint (μL/min/mg protein)” value (“Human Liver Microsome Clint” below) in data set [4] was determined as 15.8 μL/min/mg protein.
As for `Cc1c(C(=O)O)n2c3ccc(Cl)c(c13)-c1c(nn(C)c1C)CSCc1cc(n(C)n1)CSc1cc(c3ccccc3c1)OCCC2` (atropisomer, axis not shown) [Cpd. No. 6, (R)-(Z)-1^5-chloro-1^3,2^1,2^5,6^1-tetramethyl-1^1H,2^1H,6^1H-10-oxa-4,8-dithia-1(4,1)-indola-2(4,3), 6(3,5)-dipyrazola-9(3,1)-naphthalenacyclotridecaphane-1^2-carboxylic acid], the IC50 with MV-4-11 cells (setting [7]) came to 29 nM; in the data set with NCI-H929 cells (24 hrs), 39 nM; in the data set with OPM-2 cells (24 hours), 136 nM; in data set [5], 9 nM. In data set [1], the “Rat Liver Microsome Clint” value was found to be 21.0 μL/min/mg protein. The “Mouse Liver Microsome Clint” value in data set [2] stood at 23.6 μL/min/mg protein. Further, in data set [4], the “Human Liver Microsome Clint” value is less than 2.8 μL/min/mg protein.
`Cc1c2c(nn1C)CSCc1cc(n(C)n1)CSc1cc(c3ccccc3c1)OCCCc1c(C(=O)O)n(C)c3c-2c(Cl)ccc13` [AZD5991, (Z)-16-chloro-11,21,25,61-tetramethyl-11H,21H,61H-10-oxa-4,8-dithia-1(7,3)-indola-2(4,3),6(3,5)-dipyrazola-9(3,1)-naphthalenacyclotridecaphane-12-carboxylic acid, reference compound]: the IC50 in the data set on MV-4-11 cells (setting [6]) stood at 29 nM; with NCI-H929 cells (Homo sapiens, NCI-H929, 24 h) it was 47 nM; in the data set on OPM-2 cells (Homo sapiens, OPM-2, 24 h) it was 148 nM. Further, the microsomal CLint at 5 μM is 16.6 µL/min/mg in data set [1], 20.8 µL/min/mg in data set [2] and less than 2.8 µL/min/mg in data set [4]. In data set [3], the solubility was less than 1 µg/mL.
As to `Cc1c(C(=O)O)n2c3ccc(Cl)c(c13)-c1c(nn(C)c1C)CSCc1cc(n(C)n1)CSc1cc(c3ccc(F)cc3c1)OCCC2` [Cpd. No. 14, (Z)-1^5-chloro-9^6-fluoro-1^3,2^1,2^5,6^1-tetramethyl-1^1H,2^1H,6^1E-10-oxa-4,8-dithia-1(4,1)-indola-2(4,3),6(3,5)-dipyrazola-9(3,1)-naphthalenacyclotridecaphane-1^2-carboxylic acid], the IC50 turned out to be 28 nM with MV-4-11 cells (setting [7]), 28 nM in the data set with NCI-H929 cells (24 hrs), 52 nM in the data set with OPM-2 cells (24 hours) and 19 nM in data set [5]. Also, the “Rat Liver Microsome Clint” value in data set [1] was 27.2 μL/min/mg protein. For the same compound, the “Mouse Liver Microsome Clint” value in data set [2] was determined as 28.6 μL/min/mg protein. The solubility in data set [3] is 10 µg/mL (≈ 14.5 µM). The “Human Liver Microsome Clint” value in data set [4] worked out at 5.0 μL/min/mg protein.
